Measured values taken from patent US9296687B2, “Modulators of HSP70/DnaK function and methods of use thereof” (The Trustees of the University of Pennsylvania, priority 2008, dated 2016).
Peptide text beside a SMILES is read from it. * marks the point of attachment. Cbz = O=C(OCc1ccccc1)*; CH2F = FC*

How the values were obtained:
[1] = test system: p62/SQSTM1, LC3; test: Autophagy markers in cultured cells (vacuoles, LC3-II, p62/SQSTM1, electron microscopy); type: cell-based, human; settings: for p62/SQSTM1 oligomers in soluble and detergent-insoluble fractions: 24 h, PES 20 μM, Velcade 100 nM, CQ 50 μM, 17-AAG 15 nM
[2] = test system: 20S proteasome; test: Cell-based 20S proteasome activity assay; design: species or system human; settings: H1299 or A875 cells; PES 20 μM, 17-AAG 1 μM, CQ 5 μM
[3] = test system: EGFR, HER2/ErbB2, AKT; test: Western blot of HSP70/HSP90 client proteins in detergent-soluble and detergent-insoluble fractions; type: cell-based, human
Protocol: FIG. 17. PES impairs the proteasome system. (A) Cell-based 20S proteasome activity assay of H1299 or A875 human tumor cells treated with DMSO, 20 μM PES, 100 nM Velcade (proteasome inhibitor), 1 μM 17-AAG (HSP90 inhibitor), 5 μM CQ (lysosome inhibitor), or 20S proteasome inhibitor epigallocatechin gallate (EGCG). Each graphical representation indicates the mean±SD of at least three independent cultures relative to control (DMSO-treated) cells. (B) Cell extracts from SKBR3 human breast carcinoma cells, treated either with 20 μM PES or 1 μM 17-AAG for 24 h, were immunoprecipitated (IP) using anti-HSP70 or anti-HSP90 antibody. […] MTT assays of MCF7 human breast carcinoma cells pretreated with DMSO, or 5 μM PES for 1 h, followed by the addition of indicated amount of 17-AAG for 47 h. The results represent the mean±SD of at least three independent analysis of cultures relative to control (DMSO-treated) cells. (D and E) H1299 cells (D) or SKBR3 cells (E) were treated with DMSO, 20 μM PES, 17-AAG, or 17-AAG plus bortezomib (Velcade) as indicated; harvested in 1% NP-40 containing lysis buffer; fractionated into detergent-soluble and detergent-insoluble preparations; and assayed by western blot.
FIG. 18. Accumulation of HSP90 client proteins in the protein detergent-insoluble fraction following PES. (A) SKOV3 cells were treated with DMSO, 10 μM PES, or 20 μM PES for 24 h. Note the marked accumulation of EGFR, HER2/ErbB2, and AKT in the detergent-insoluble fraction following 20 μM PES treatment. (B and C) SKOV3 (B) or SKBR3 (C) cells were treated with DMSO, 20 μM PES, or 1 μM 17-AAG, as indicated, for 24 h. Cells were harvested in 1% NP-40 containing lysis buffer, fractionated into detergent-soluble and detergent-insoluble preparations, and assayed by western blot for the proteins indicated.
The HSP70 and HSC70 proteins bind to exposed hydrophobic regions of nascent-, translocating-, misfolded- or partially unfolded-proteins. These ATP-dependent molecular chaperones act in multi-protein complexes in conjunction with one or more regulatory co-chaperones to carry out multiple cellular functions. […] This is illustrated for H1299 cells treated with 10 or 20 μM PES for 24 h. […] This correlates with a reduced abundance of complexes containing HSP70, or HSC70, together with client proteins or co-chaperones (FIGS. 19A and 19B). […] However, since HSP70/HSC70 act as critical co-chaperones for HSP90, for example in client protein recruitment, PES-mediated alteration in the function of the 70-kDa molecular chaperones could be reflected in an altered behavior or expression of many client proteins. To test this idea, we examined the expression of a few well-established HSP90 client proteins, including the transmembrane tyrosine kinase receptors EGFR and HER2/ERBB2, and the downstream signaling factor AKT. These proteins are overexpressed, or aberrantly expressed, in a variety of human tumors, and have been implicated in cancer etiology and pathology. As a control for these studies, we compared the effects of PES to that of the well-established HSP90 inhibitor, 17-allylamino-17-demethoxygeldanamycin (17-AAG). 17-AAG interacts with the N-terminal region of HSP90 and inhibits its ATPase activity; this disrupts interactions of HSP90 with client proteins and leads to client-protein degradation via the ubiquitin-proteasome pathway (Whitesell, et al. 2005; Neckers, et al. 2007). To examine the expression of some HSP70/HSP90 clients, we used western blot analysis of detergent-soluble (clarified) whole cell extracts.

[4] = biological target: T1, HSP70 (Homo sapiens, UniProt P0DMV8); test: In vitro binding of B-PES on NeutrAvidin resins to 35S-labelled in vitro translated protein
Target sequence in this assay (P0DMV8 whole entry): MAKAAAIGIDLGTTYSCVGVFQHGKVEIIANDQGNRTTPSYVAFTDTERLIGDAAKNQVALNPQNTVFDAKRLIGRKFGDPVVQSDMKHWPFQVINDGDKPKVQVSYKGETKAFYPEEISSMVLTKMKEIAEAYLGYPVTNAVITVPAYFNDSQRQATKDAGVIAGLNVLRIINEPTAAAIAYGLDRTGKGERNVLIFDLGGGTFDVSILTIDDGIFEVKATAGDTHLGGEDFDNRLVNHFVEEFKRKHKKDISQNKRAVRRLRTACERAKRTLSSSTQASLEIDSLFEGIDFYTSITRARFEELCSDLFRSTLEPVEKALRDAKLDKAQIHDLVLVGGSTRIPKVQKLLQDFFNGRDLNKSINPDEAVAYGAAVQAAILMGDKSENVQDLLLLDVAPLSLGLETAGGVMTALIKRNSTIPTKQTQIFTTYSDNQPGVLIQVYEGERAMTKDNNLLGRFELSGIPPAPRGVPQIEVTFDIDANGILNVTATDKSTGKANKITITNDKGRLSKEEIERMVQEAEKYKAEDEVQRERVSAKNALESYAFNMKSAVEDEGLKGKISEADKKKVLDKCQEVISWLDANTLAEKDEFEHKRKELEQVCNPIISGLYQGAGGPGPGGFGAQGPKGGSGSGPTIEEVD

[5] = biological target: T1, HSP70; test: Capture of HA-tagged HSP70 constructs from transfected H1299 cells with biotinylated compound; type: binding; design: expressed in transfected cells; host or cells: H1299
Protocol: FIG. 1. PES Binds to HSP70. (A) Whole cell extracts (WCE) prepared from A875 and BCL-xL over-expressing U2OS human osteosarcoma cells (BX-U2OS) cells, treated with Biotin or Biotin-PES (B-PES), were captured using NeutrAvidin agarose resins. HSP70-family proteins were identified as the major product in the excised band of ˜70 kDa shown in both Coomassie gels. (B and C) WCE were prepared from the cell lines indicated following 24 h treatment with 20 μM Biotin or B-PES and examined for the expression of proteins indicated (left panel of B and C) by western blot analysis; note that different exposure times were used to visualize these proteins. […] (D) In vitro evidence for an interaction between B-PES and HSP70. Full-length human HSP70 and human HSP90 proteins were in vitro translated in the presence of ^35S-methionine, mixed with B-PES coupled to NeutrAvidin resins, and eluted using 100 mM DTT. The resulting DTT eluates were separated by polyacrylamide gel electrophoresis (SDS-PAGE) and visualized by autoradiography. (E) B-PES interacts with the C-terminal region of HSP70. H1299 cells were transfected with the indicated hemagglutinin (HA)-tagged constructs and exposed to B-PES. B-PES containing complexes were captured by NeutrAvidin Resins, eluted following 100 mM DTT treatment, and immunoblotted with anti-HA antibody following SDS-PAGE. (F) Non-transformed human IMR90 fibroblasts or H1299 lung carcinoma cells were treated with the indicated concentrations of PES for 24 h and cell viability was determined by MTT assays. (G) WCE were prepared from the cell lines indicated following 5 hr treatment with 20 μM PES or B-PES and examined for the expression of proteins indicated (left panel) by western blot analysis; note that different exposure times were used to visualize these proteins. B-PES-containing complexes were captured by NeutrAvidin resins, eluted following 50 mM DTT treatment, and immunoblotted using the indicated antibodies.
The free amide group of PES-Cl was biotinylated and added to HA-tagged HSP70-transfected H1299 cells. The treatment of the cells occurred for 6 hours. The complexes were pulled down with NeutrAvidin beads, eluted with 100 mM DTT treatments, separated with SDS-PAGE and detected with anti-HA antibody (Millipore) by Western blot.
Docking studies were performed using the C-terminal HSP70 crystal structure (FIG. 32) to elucidate the PES binding site in silico (FIG. 33). Blind docking methods were used in the program AutoDock to locate potential PES binding sites. These methods use a course grid docking approach, encompassing the entire protein, to identify favorable binding sites using a known binding ligand, and are examined by hand to support the AutoDock data. […]

[6] = biological target: T1, HSP70; test: Biotin-PES complexes captured with NeutrAvidin resins from treated cells, IP-WB; settings: 20 μM
Target sequence in this assay (P0DMV8 whole entry): as above

[7] = biological target: HSC70 (Homo sapiens, UniProt P11142); test: as above; settings: 20 μM
Sequence of HSC70 (P11142 whole entry): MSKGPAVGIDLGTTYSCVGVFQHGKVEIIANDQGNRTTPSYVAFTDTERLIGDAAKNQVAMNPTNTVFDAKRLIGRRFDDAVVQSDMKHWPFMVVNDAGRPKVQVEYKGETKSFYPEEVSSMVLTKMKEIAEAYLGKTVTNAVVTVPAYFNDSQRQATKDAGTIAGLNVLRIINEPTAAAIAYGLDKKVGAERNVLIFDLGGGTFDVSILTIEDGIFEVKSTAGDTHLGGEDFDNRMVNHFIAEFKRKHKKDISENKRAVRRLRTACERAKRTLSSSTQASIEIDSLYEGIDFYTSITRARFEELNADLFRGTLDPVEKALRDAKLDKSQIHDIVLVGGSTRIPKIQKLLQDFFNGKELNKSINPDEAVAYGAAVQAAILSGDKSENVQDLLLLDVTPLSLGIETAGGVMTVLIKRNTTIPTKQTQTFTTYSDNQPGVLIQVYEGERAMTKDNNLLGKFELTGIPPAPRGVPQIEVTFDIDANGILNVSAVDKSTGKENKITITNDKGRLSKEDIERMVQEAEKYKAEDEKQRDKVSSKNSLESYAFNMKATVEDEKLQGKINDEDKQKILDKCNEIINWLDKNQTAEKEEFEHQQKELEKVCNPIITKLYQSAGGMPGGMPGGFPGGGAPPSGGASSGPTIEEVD

[8] = biological target: GRP78 (Homo sapiens, UniProt P11021); test: as above; settings: 20 μM, 24 h
Sequence of GRP78 (P11021 19-654): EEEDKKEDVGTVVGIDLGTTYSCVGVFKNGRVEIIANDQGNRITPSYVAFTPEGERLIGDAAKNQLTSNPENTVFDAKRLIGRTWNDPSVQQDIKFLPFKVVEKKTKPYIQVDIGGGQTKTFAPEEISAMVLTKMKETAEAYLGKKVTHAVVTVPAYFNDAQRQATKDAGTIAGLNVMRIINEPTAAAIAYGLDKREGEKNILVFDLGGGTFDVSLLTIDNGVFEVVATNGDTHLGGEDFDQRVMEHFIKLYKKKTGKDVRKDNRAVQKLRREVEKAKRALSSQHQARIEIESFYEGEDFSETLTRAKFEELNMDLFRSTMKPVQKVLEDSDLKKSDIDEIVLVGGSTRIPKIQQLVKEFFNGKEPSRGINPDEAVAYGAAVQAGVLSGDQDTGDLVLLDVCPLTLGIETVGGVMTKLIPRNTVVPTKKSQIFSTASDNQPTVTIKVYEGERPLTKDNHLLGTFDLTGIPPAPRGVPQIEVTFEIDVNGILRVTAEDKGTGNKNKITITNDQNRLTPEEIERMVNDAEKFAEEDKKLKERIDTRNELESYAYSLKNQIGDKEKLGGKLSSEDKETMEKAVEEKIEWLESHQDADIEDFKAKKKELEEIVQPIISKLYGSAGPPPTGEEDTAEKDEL

[9] = test system: HSP90; test: as above; settings: 20 μM, 24 h
[10] = biological target: T1, HSP70; test: Competition of untagged PES with B-PES for HSP70; type: binding; design: endogenous in cells; host or cells: human tumor cell lines (A875, BX-U2OS, U2OS, H1299, MiaPaCa2, HepG2, SKBR3, 293T); settings: purified HSP70, 0.25 mM B-PES, 0.125 mM untagged PES
Protocol: FIG. 15. Evidence supporting HSP70 as the cellular target of PES. (A) Competition studies in vivo support HSP70 as a PES target. H1299 cells were either pre-treated with DMSO or excess (25×) untagged PES for 1 h prior to the addition of 20 μM Biotin-PES (B-PES) for 5 h, and examined for the expression of proteins indicated (left). B-PES-containing complexes were captured by NeutrAvidin Resins, and immunoblotted using the indicated antibodies. […] (B) Competition studies in vitro support HSP70 as a PES target. Purified HSP70 protein was incubated with 0.25 mM B-PES in the absence and in the presence of 0.125 mM untagged PES.
Target sequence in this assay (P0DMV8 whole entry): as the sequence (P0DMV8 whole entry) above

[11] = test system: caspase-3, caspase-8; test: Western blot for caspase cleavage; type: cell-based, human; settings: U2OS, 20 μM pretreatment 1 h
[12] = test system: tumor cell lines; test: MTT cell viability assay; type: cell-based, human; settings: 20 μM pretreatment 1 h, then 20 μM PES 24 h
Protocol: Cell viability assays were performed using an MTT (methyl thiazolyl tetrazolium) colorimetric assay (Roche Applied Science, Cat. No. 11 465 007 001), with the following modifications. Briefly, cells (1×10^4) were plated into 24 well-assay plates in 0.5 ml media and allowed to attach overnight. […] After the incubation period, 50 μl of the water-soluble MTT labeling reagent [3-[4,5-dimethylthiazol-2-yl]-2,5-diphenyl tetrazolium bromid] were added to the cells, and the cells were incubated for 4 h in a humidified chamber at 37° C. with 5% CO2. The metabolized insoluble formazan crystals were then solubilized using 0.5 ml of the Solubilization solution (10% SDS in 0.01M HCl) per well, and the resulting colored solutions were spectrophotometrically quantified at an absorbance of 570 nm.

## C=CCNC1=C2C[C@@H](C)C[C@H](OC)[C@H](O)[C@@H](C)/C=C(\C)[C@H](OC(N)=O)[C@@H](OC)/C=C\C=C(/C)C(=O)NC(=CC1=O)C2=O [17-AAG, 17-allylamino-17-demethoxygeldanamycin]
[1]
  p62/SQSTM1 oligomers in soluble and detergent-insoluble fractions: neither p62/SQSTM1 accumulation nor oligomerization was noted
[2]
  activity of the 20S proteasome: little, if any, effect
[3]
  fate of HSP90 client proteins: causes proteasome-mediated degradation of HSP90 client proteins
[3]; SKBR3 cells, detergent-soluble extracts, 24 h
  overall cellular abundance of EGFR, HER2/ErbB2 and AKT: reduction in the overall cellular abundance

## O=C(CCCCC1SCC2NC(=O)NC21)NCCSSCCC(=O)NS(=O)(=O)C#Cc1ccccc1 (centres unmarked) [B-PES]
[4]
  interaction with in vitro translated HSP70: interacts with in vitro translated HSP70
[5]; amino acids 2-385
  interaction with amino-terminal ATPase domain of HSP70: not the amino-terminal ATPase domain
[5]; amino acids 386-641
  interaction with carboxyl-terminal substrate-binding domain of HSP70: interacts with the carboxyl-terminal substrate-binding domain
[6]; IMR90 fibroblasts
  HSP70 captured with B-PES: did not observe a PES interaction
[6]; several cell lines, 24 h
  interaction with endogenous HSP70: interacts with HSP70
[6]; tumor cells, 5 hr (FIG. 1G)
  HSP70 captured with B-PES: found together with this small molecule
[7]; 24 h
  interaction with endogenous HSC70: no detectable interaction
[7]; IMR90 fibroblasts
  HSC70 captured with B-PES: did not observe a PES interaction
[7]; tumor cells, 5 hr (FIG. 1G)
  HSC70 captured with B-PES: found together with this small molecule
[8]
  interaction with endogenous GRP78: no detectable interaction
[9]
  interaction with endogenous HSP90: no detectable interaction
[10]
  B-PES/HSP70 complex formation: direct interaction between B-PES and HSP70

## C[C@@H]1C[C@@H]([C@H](O)CC2CC(=O)NC(=O)C2)C(=O)[C@@H](C)C1 [CHX, cycloheximide]
[1]; co-treated with PES for 6 h
  PES-induced p62/SQSTM1 accumulation and oligomerization under co-treatment: reduced the accumulation and oligomerization of the autophagy marker p62/SQSTM1

## CC(C)C[C@H](NC(=O)[C@H](Cc1ccccc1)NC(=O)c1cnccn1)B(O)O [Velcade, bortezomib]
[1]
  p62/SQSTM1 oligomers in soluble and detergent-insoluble fractions: promoted p62/SQSTM1 oligomerization primarily in the detergent-insoluble fraction

## COC(=O)C[C@H](NC(=O)[C@H](C)NC(=O)[C@@H](NC(=O)OCc1ccccc1)C(C)C)C(=O)CF [Z-VAD-FMK] (Cbz-Val-Ala-Asp(OMe)-CH2F)
[11]
  cisplatin- and camptothecin-mediated caspase cleavage: inhibited cisplatin- as well as camptothecin-mediated caspase cleavage
[12]
  effect on PES-mediated loss of cell viability: did not alter PES-mediated loss of cell viability
